From ChEMBL document CHEMBL1201862, “PubChem BioAssay data set” (2004)
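Values below derive from 48-hour exposures of cells grown in 96-well plates, with endpoints linearly interpolated between the two concentrations bracketing the appropriate inhibition level. GI50 = concentration required for 50% inhibition of growth.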 Active and inactive are the calls of the source. Cut-off read from the data, not from the text of the source: active = GI50 up to about 1.1 µM and inactive = higher.

Experiments:
Experiment in all cases: NCI tumour cell line growth inhibition, 48 h
CAKI-1 = tested on: CAKI-1
DMS-114 = tested on: DMS-114
EKVX = tested on: EKVX
IGROV-1 = tested on: IGROV-1
KM12 = tested on: KM12
MDA-MB-231 = tested on: MDA-MB-231
MOLT-4 = tested on: MOLT-4
NCI/ADR-RES = tested on: NCI/ADR-RES
OVCAR-5 = tested on: OVCAR-5
OVCAR-8 = tested on: OVCAR-8
RPMI-8226 = tested on: RPMI-8226
SF-295 = tested on: SF-295
SK-MEL-28 = tested on: SK-MEL-28
SK-MEL-2 = tested on: SK-MEL-2
SK-MEL-5 = tested on: SK-MEL-5
SNB-19 = tested on: SNB-19
SNB-78 = tested on: SNB-78
UACC-257 = tested on: UACC-257
UACC-62 = tested on: UACC-62
A549 = tested on: A549

| Structure (SMILES) | GI50 (CAKI-1) | GI50 (DMS-114) | GI50 (EKVX) | GI50 (IGROV-1) | GI50 (KM12) | GI50 (MDA-MB-231) | GI50 (MOLT-4) | GI50 (NCI/ADR-RES) | GI50 (OVCAR-5) | GI50 (OVCAR-8) | GI50 (RPMI-8226) | GI50 (SF-295) | GI50 (SK-MEL-28) | GI50 (SK-MEL-2) | GI50 (SK-MEL-5) | GI50 (SNB-19) | GI50 (SNB-78) | GI50 (UACC-257) | GI50 (UACC-62) | GI50 (A549) |
| --- | --- | --- | --- | --- | --- | --- | --- | --- | --- | --- | --- | --- | --- | --- | --- | --- | --- | --- | --- | --- |
| CCN(CC)C(=S)SC1CCOP(=O)(N(CCCl)CCCl)N1C (centres undefined) | 45.6 µM (inactive) | 0.19 µM (active) | 57.1 µM (inactive) | 4.34 µM (inactive) | 7.19 µM (inactive) | > 100 µM (inactive) | 0.439 µM (active) | > 100 µM (inactive) | 12.1 µM (inactive) | 29.9 µM (inactive) | 1.34 µM (inactive) | 55.6 µM (inactive) | 26.9 µM (inactive) | 20.5 µM (inactive) | 2.96 µM (inactive) | > 92.9 µM (inactive) | 49.2 µM (inactive) | > 40.9 µM (inactive) | 1.83 µM (inactive) | – |
| Cc1cc(NC(=O)NC(=O)c2ccccc2NC(=O)C(C)N)ccc1Oc1ncc(Br)cn1 (centres undefined) | 0.0173 µM (active) | 1.13 µM (inactive) | 0.335 µM (active) | 0.153 µM (active) | 0.169 µM (active) | 0.143 µM (active) | 0.23 µM (active) | 0.0208 µM (active) | 1.09 µM (active) | 0.141 µM (active) | 0.207 µM (active) | 0.0256 µM (active) | 0.184 µM (active) | 0.153 µM (active) | 0.0457 µM (active) | 0.248 µM (active) | 0.146 µM (active) | 0.547 µM (active) | 0.0693 µM (active) | 0.153 µM (active) |
| Nc1ccc2c(SCc3ccc([N+](=O)[O-])cc3)c3ccccc3nc2c1 | 13.3 µM (inactive) | 15 µM (inactive) | 24.8 µM (inactive) | 19.5 µM (inactive) | 12.5 µM (inactive) | 25.5 µM (inactive) | 2.3 µM (inactive) | 18.2 µM (inactive) | 18.3 µM (inactive) | 13.2 µM (inactive) | 2.7 µM (inactive) | 18.2 µM (inactive) | 15.6 µM (inactive) | 16.4 µM (inactive) | 15.2 µM (inactive) | 21.9 µM (inactive) | 21.9 µM (inactive) | 16.4 µM (inactive) | 16.3 µM (inactive) | 21.6 µM (inactive) |
